Source: ChEMBL document CHEMBL5550204, “Discovery of ZJCK-6-46: A Potent, Selective, and Orally Available Dual-Specificity Tyrosine Phosphorylation-Regulated Kinase 1A Inhibitor for the Treatment of Alzheimer's Disease” (J Med Chem, 2024)
Activity calls are given as the source filed them. The rule behind the calls is not given here.

What was measured:
[1] = biological target: Glycogen synthase kinase-3 beta (Homo sapiens, UniProt P49841); assay: Inhibition of GSK-3beta (unknown origin) preincubated with enzyme for 10 mins followed by substrate and ATP addition measured after 60 mins by ADP-Glo reagent based assay
Chain of Glycogen synthase kinase-3 beta (P49841 whole entry): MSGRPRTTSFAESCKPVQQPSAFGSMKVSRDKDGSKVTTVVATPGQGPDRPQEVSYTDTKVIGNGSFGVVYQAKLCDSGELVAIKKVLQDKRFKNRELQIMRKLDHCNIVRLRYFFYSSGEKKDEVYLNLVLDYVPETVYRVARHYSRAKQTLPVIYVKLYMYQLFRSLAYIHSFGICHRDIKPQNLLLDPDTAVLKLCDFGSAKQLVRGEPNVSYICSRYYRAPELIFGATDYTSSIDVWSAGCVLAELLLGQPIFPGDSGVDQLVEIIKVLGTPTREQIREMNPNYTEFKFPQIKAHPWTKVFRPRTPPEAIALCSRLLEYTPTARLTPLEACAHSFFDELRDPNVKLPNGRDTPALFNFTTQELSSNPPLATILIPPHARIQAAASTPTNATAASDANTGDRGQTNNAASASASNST

[2] = Metabolic stability in human plasma assessed as half life at 2 uM incubated upto 60 mins […] by LC-MS/MS analysis; type: ADME, cell-free
CYP2C19 = CYP2C19 (Homo sapiens, UniProt P33261); assay: Inhibition of CYP2C19 in human liver microsomes using mephenytoin as substrate at 10 uM preincubated for 10 mins followed by NADPH addition and measured after 40 mins by LC-MS/MS analysis relative to control; type: ADME, Microsome; settings: probe mephenytoin, time 50 min
Chain of CYP2C19 (P33261 whole entry): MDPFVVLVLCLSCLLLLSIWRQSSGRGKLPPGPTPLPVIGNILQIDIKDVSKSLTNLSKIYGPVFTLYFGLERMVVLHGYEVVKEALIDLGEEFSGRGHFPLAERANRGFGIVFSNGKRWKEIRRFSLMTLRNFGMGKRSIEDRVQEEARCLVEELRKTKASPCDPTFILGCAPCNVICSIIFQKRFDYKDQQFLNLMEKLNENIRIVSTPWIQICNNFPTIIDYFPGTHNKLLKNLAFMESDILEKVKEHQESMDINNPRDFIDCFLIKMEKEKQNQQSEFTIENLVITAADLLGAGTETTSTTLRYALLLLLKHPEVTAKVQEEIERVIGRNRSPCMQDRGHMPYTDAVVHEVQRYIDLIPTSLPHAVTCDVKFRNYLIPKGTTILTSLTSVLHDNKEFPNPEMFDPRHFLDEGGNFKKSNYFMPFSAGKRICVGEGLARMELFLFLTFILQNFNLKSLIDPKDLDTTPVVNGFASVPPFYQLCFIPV

CYP2E1 = CYP2E1 (Homo sapiens, UniProt P05181); assay: Inhibition of CYP2E1 in human liver microsomes using chlorzoxazone as substrate at 10 uM preincubated for 10 mins followed by NADPH addition and measured after 40 mins by LC-MS/MS analysis relative to control; settings: probe chlorzoxazone
Chain of CYP2E1 (P05181 whole entry): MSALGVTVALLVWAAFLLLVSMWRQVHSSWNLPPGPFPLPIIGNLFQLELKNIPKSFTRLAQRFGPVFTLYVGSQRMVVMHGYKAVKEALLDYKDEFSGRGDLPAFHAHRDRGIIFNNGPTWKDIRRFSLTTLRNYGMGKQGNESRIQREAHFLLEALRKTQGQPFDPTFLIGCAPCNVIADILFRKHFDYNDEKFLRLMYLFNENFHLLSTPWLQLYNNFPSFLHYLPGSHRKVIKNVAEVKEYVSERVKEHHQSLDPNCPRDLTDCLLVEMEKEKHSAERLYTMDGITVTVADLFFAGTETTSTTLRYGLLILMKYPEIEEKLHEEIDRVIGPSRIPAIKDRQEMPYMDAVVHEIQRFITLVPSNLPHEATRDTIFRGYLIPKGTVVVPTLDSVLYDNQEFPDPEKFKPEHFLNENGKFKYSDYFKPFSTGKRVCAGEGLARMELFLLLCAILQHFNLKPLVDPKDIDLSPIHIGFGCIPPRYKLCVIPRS

[3] = AUC (0 to t) in Sprague-Dawley rat at 10 mg/kg,po measured upto 24 hrs by LC-MS/MS analysis; type: ADME, organism-based; settings: in vivo
[4] = AUC (0 to infinity) in Sprague-Dawley rat at 2 mg/kg,iv measured upto 24 hrs by LC-MS/MS analysis; type: ADME, organism-based; settings: in vivo
[5] = AUC (0 to infinity) in Sprague-Dawley rat at 10 mg/kg,po measured upto 24 hrs by LC-MS/MS analysis; type: ADME, organism-based; settings: in vivo
[6] = MRT (0 to t) in Sprague-Dawley rat at 2 mg/kg,iv measured upto 24 hrs by LC-MS/MS analysis; type: ADME, organism-based; settings: in vivo
[7] = MRT (0 to infinity) in Sprague-Dawley rat at 2 mg/kg,iv measured upto 24 hrs by LC-MS/MS analysis; type: ADME, organism-based; settings: in vivo
[8] = Half life in Sprague-Dawley rat at 2 mg/kg,iv measured upto 24 hrs by LC-MS/MS analysis; type: ADME, organism-based; settings: in vivo
[9] = Clearance in Sprague-Dawley rat at 2 mg/kg,iv measured upto 24 hrs by LC-MS/MS analysis; type: ADME, organism-based; settings: in vivo
[10] = Apparent volume of distribution in Sprague-Dawley rat at 2 mg/kg,iv measured upto 24 hrs by LC-MS/MS analysis; type: ADME, organism-based; settings: in vivo, read-out: Vz
[11] = Drug concentration in Sprague-Dawley rat plasma at 10 mg/kg,po measured after 1 hr by LC-MS/MS analysis; type: ADME, organism-based
[12] = Drug concentration in Sprague-Dawley rat plasma at 10 mg/kg,po measured after 2 hrs by LC-MS/MS analysis; type: ADME, organism-based
[13] = Drug concentration in Sprague-Dawley rat brain at 10 mg/kg,po measured after 4 hrs by LC-MS/MS analysis; type: ADME, organism-based; settings: read-out: Ct
[14] = biological target: Dual specificity tyrosine-phosphorylation-regulated kinase 2 (Homo sapiens, UniProt Q92630); assay: Inhibition of DYRK2 (unknown origin) preincubated with enzyme for 10 mins followed by substrate and ATP addition measured after 60 mins by ADP-Glo reagent based assay
Chain of Dual specificity tyrosine-phosphorylation-regulated kinase 2 (Q92630 whole entry): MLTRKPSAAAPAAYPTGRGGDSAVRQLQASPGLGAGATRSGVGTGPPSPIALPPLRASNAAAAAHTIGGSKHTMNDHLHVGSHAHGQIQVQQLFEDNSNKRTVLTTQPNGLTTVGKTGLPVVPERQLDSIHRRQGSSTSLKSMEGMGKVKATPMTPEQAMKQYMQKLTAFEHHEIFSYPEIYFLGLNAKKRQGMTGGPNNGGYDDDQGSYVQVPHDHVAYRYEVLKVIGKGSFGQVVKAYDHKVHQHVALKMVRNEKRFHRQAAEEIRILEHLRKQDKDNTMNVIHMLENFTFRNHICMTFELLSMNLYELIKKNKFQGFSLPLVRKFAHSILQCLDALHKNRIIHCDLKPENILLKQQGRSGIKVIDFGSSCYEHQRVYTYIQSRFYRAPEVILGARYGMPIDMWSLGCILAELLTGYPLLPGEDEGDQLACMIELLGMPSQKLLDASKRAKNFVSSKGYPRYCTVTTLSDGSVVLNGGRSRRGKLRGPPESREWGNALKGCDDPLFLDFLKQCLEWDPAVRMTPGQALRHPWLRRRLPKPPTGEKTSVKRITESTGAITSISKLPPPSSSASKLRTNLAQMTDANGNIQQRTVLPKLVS

[15] = biological target: Dual specificity tyrosine-phosphorylation-regulated kinase 4 (Homo sapiens, UniProt Q9NR20); assay: Inhibition of DYRK4 (unknown origin) preincubated with enzyme for 10 mins followed by substrate and ATP addition measured after 60 mins by ADP-Glo reagent based assay
Chain of Dual specificity tyrosine-phosphorylation-regulated kinase 4 (Q9NR20 whole entry): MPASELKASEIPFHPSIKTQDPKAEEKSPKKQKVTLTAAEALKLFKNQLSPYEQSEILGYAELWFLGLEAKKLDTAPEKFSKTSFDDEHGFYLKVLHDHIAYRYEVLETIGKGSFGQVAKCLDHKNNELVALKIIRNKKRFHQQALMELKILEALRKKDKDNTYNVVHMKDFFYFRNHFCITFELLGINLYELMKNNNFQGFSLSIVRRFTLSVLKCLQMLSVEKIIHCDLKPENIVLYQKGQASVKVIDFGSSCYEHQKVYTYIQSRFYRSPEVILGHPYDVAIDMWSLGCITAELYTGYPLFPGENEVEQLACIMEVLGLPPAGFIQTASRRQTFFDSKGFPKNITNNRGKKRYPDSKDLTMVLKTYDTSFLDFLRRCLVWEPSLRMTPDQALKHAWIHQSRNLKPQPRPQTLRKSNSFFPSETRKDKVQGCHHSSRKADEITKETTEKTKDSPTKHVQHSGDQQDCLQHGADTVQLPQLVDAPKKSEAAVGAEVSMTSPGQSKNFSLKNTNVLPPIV

[16] = biological target: T1, Dual specificity protein kinase CLK4 (Homo sapiens, UniProt Q9HAZ1); assay: Inhibition of CLK4 (unknown origin) preincubated with enzyme for 10 mins followed by substrate and ATP addition measured after 60 mins by ADP-Glo reagent based assay
Target sequence in this assay (Q9HAZ1 whole entry): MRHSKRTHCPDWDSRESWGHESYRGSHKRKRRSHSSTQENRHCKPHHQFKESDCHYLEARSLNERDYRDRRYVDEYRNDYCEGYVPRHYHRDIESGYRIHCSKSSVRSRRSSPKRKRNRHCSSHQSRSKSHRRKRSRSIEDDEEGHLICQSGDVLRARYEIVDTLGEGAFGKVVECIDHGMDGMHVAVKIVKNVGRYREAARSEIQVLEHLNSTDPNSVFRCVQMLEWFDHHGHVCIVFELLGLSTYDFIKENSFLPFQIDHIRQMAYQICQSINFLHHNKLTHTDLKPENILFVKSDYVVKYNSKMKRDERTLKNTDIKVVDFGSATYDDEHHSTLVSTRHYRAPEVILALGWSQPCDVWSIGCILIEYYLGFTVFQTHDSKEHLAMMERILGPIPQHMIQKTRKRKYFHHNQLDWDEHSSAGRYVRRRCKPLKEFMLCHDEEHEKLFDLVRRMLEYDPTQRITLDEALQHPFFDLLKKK

[17] = biological target: Dual specificity tyrosine-phosphorylation-regulated kinase 2 (Homo sapiens) (UniProt Q92630); assay: Inhibition of DYRK2 (unknown origin) at 1 uM preincubated with enzyme for 10 mins followed by substrate and ATP addition measured after 60 mins by ADP-Glo reagent based assay relative to control; settings: time 70.0 min
Chain of Dual specificity tyrosine-phosphorylation-regulated kinase 2 (Homo sapiens) (Q92630 whole entry): as the sequence (Q92630 whole entry) above

[18] = biological target: Dual specificity tyrosine-phosphorylation-regulated kinase 3 (Homo sapiens) (UniProt O43781); assay: Inhibition of DYRK3 (unknown origin) at 1 uM preincubated with enzyme for 10 mins followed by substrate and ATP addition measured after 60 mins by ADP-Glo reagent based assay relative to control; settings: time 70.0 min
Chain of Dual specificity tyrosine-phosphorylation-regulated kinase 3 (Homo sapiens) (O43781 whole entry): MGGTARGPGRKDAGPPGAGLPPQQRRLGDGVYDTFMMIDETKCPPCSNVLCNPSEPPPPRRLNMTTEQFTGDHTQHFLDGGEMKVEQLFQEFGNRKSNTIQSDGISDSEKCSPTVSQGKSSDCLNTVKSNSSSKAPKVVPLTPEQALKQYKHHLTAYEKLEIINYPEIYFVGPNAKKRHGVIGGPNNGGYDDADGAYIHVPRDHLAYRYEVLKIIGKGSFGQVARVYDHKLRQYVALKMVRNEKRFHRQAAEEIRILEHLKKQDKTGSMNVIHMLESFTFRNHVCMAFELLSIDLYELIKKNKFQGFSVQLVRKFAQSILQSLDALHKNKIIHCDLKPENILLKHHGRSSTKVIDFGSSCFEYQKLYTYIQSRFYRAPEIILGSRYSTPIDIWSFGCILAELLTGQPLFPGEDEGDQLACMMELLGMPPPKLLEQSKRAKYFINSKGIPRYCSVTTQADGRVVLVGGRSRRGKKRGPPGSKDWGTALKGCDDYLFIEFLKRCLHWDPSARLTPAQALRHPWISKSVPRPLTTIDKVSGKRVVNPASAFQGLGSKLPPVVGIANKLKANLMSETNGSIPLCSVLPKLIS

[19] = biological target: Dual specificity tyrosine-phosphorylation-regulated kinase 4 (Homo sapiens) (UniProt Q9NR20); assay: Inhibition of DYRK4 (unknown origin) at 1 uM preincubated with enzyme for 10 mins followed by substrate and ATP addition measured after 60 mins by ADP-Glo reagent based assay relative to control; settings: time 70.0 min
Chain of Dual specificity tyrosine-phosphorylation-regulated kinase 4 (Homo sapiens) (Q9NR20 whole entry): as the sequence (Q9NR20 whole entry) above

[20] = biological target: T1, Dual specificity protein kinase CLK4; assay: Inhibition of CLK4 (unknown origin) at 1 uM preincubated with enzyme for 10 mins followed by substrate and ATP addition measured after 60 mins by ADP-Glo reagent based assay relative to control; settings: time 70.0 min
Target sequence in this assay (Q9HAZ1 whole entry, looked up): as the sequence (Q9HAZ1 whole entry) above

HEK-293T [21] = assay: Cytotoxicity against human HEK293T cells expressing human Tau P301L mutant at 0.15625 to 10 uM incubated for 24 hrs by MTT assay; type: toxicity, cell-based; settings: dose 0.15625-10 µM
HEK-293T [22] = assay: Cytotoxicity against human HEK293T cells expressing human Tau P301L mutant at 20 uM incubated for 24 hrs by MTT assay; type: toxicity, cell-based
[23] = Acute toxicity in C57BL/6 mouse assessed as change in heart weight at 500 mg/kg,po observed after 14 days; type: organism-based; settings: in vivo, 336 h, time 14 day
[24] = Acute toxicity in C57BL/6 mouse assessed as change in kidney weight at 500 mg/kg,po observed after 14 days; type: organism-based; settings: in vivo, 336 h, time 14 day
[25] = Acute toxicity in C57BL/6 mouse assessed as histopathological change in liver at 500 mg/kg,po observed after 14 days by hematoxylin-eosin staining based analysis; type: organism-based; settings: in vivo, 336 h, time 14 day
Mus musculus [26] = assay: Antialzheimer activity in okadaic acid-induced cognitive impairment C57BL/6 mouse assessed as change in swimming speed at 10 to 30 mg/kg,po once daily for 2 weeks by Morris water maze test; type: functional, organism-based; settings: dose 10-30 mg/kg
Mus musculus [27] = assay: Antialzheimer activity in okadaic acid-induced cognitive impairment C57BL/6 mouse assessed as decrease in memory deficit at 10 to 30 mg/kg,po once daily for 2 weeks by Morris water maze test; type: functional, organism-based; settings: dose 10-30 mg/kg
Mus musculus [28] = assay: Antialzheimer activity in okadaic acid-induced cognitive impairment C57BL/6 mouse assessed as increase in number of platform crossing at 10 to 30 mg/kg,po measured after 7 days by Morris water maze test; type: functional, organism-based; settings: dose 10-30 mg/kg, time 7.0 day
Mus musculus [29] = assay: Antialzheimer activity in okadaic acid-induced cognitive impairment C57BL/6 mouse assessed as increase in cognitive function at 10 to 30 mg/kg,po measured after 7 days by Morris water maze test; type: functional, organism-based; settings: dose 10-30 mg/kg, time 7.0 day
Mus musculus [30] = assay: Antialzheimer activity in okadaic acid-induced cognitive impairment C57BL/6 mouse assessed as reduction in nerve damage in hippocampal CA1 region at 10 to 30 mg/kg,po once daily for 2 weeks by Nissl staining based microscopy; type: functional, organism-based; settings: dose 10-30 mg/kg
[31] = Toxicity in okadaic acid-induced cognitive impairment C57BL/6 mouse assessed as change in serum TBIL level at 10 to 30 mg/kg,po once daily for 2 weeks; type: organism-based; settings: in vivo, 336 h, dose 10-30 mg/kg

Q: Which IC50 [1] does the source give for Cc1ccc2c(-c3ccc4ncnc(N[C@H](CO)c5ccccc5)c4c3)c[nH]c2n1 here?
A: 1.42 µM

Q: What about the half-life at 2 µM [2] of the same compound?
A: > 3.33 h

Q: What about the inhibition at 40 min, 10 µM (CYP2C19) of the same compound?
A: 96.9%

Q: What about the inhibition at 40 min, 10 µM (CYP2E1) of the same compound?
A: 0.07%

Q: And the AUC(0-t) at 24 h [3]?
A: 2.99 µg·h/mL

Q: And the AUC(0-inf) [4]?
A: 1.59 µg·h/mL

Q: And the AUC(0-inf) [5]?
A: 3.01 µg·h/mL

Q: And the MRT last at 24 h [6]?
A: 3.81 h

Q: What about the MRT inf [7] of the same compound?
A: 4.49 h

Q: And the half-life [8]?
A: 2.95 h

Q: What about the clearance [9] of the same compound?
A: 1.42 L/h/kg

Q: What about the Vd [10] of the same compound?
A: 5.82 L/kg

Q: And the concentration at 1 h [11]?
A: 0.353 µg/mL

Q: What about the concentration at 2 h [12] of the same compound?
A: 0.141 µg/mL

Q: What about the concentration at 4 h [13] of the same compound?
A: 39.1 ng/g

Q: And the IC50 [14]?
A: 0.0142 µM

Q: And the IC50 [15]?
A: 0.401 µM

Q: What about the IC50 [16] of the same compound?
A: 0.0389 µM

Q: What about the inhibition [17] of the same compound?
A: 105%

Q: What about the inhibition [18] of the same compound?
A: 98.1%

Q: What about the inhibition [19] of the same compound?
A: 102%

Q: What about the inhibition [20] of the same compound?
A: 100%

Q: And the Activity (HEK-293T [21])?
A: Non-Toxic

Q: What about the Activity (HEK-293T [22]) of the same compound?
A: Toxic

Q: And the Activity [23]?
A: Non-Toxic

Q: What about the Activity [24] of the same compound?
A: Non-Toxic

Q: What about the Activity [25] of the same compound?
A: Non-Toxic

Q: And the Activity (Mus musculus [26])?
A: inactive

Q: And the Activity (Mus musculus [27])?
A: Active

Q: What about the Activity (Mus musculus [28]) of the same compound?
A: Active

Q: And the Activity (Mus musculus [29])?
A: Active

Q: What about the Activity (Mus musculus [30]) of the same compound?
A: Active

Q: What about the Activity [31] of the same compound?
A: Non-Toxic
